Like-named read-outs stand apart in the source and are kept apart here.
Target: full-length human PRMT1 isoform 1 (GST-tagged) (Homo sapiens, UniProt Q99873)
Assay: PRMT1 Biochemical Assay (3H-SAM Flashplate, peptide substrate)
Source text: General Materials. S-adenosylmethionine (SAM), S-adenosylhomocysteine (SAH), bicine, Tween20, dimethylsulfoxide (DMSO), bovine skin gelatin (BSG), and Tris(2-carboxyethyl)phosphine hydrochloride solution (TCEP) were purchased from Sigma-Aldrich at the highest level of purity possible. ^3H-SAM was purchase from American Radiolabeled Chemicals with a specific activity of 80 Ci/mmol. 384-well streptavidin Flashplates were purchased from PerkinElmer.
Protein Expression. Recombinant baculovirus were generated according to Bac-to-Bac kit instructions (Life Technologies). […] Infections were carried out at 27° C. for 48 hours, harvested by centrifugation, and stored at −80° C. for purification.
Protein Purification. […] GST-tagged PRMT1 was eluted with 50 mM Tris, 2 mM glutathione, pH 7.8, dialysed in buffer A and concentrated to 1 mg/mL.
General Procedure for PRMT1 Enzyme Assays on Peptide Substrates. The assays were all performed in a buffer consisting of 20 mM Bicine (pH=7.6), 1 mM TCEP, 0.005% BSG, and 0.002% Tween 20, prepared on the day of use. […] DMSO (1 ul) was added to Columns 11, 12, 23, 24, rows A-H for the maximum signal control and 1 ul of SAH, a known product and inhibitor of PRMT1, was added to columns 11, 12, 23, 24, rows I-P for the minimum signal control. A cocktail (40 ul) containing the PRMT1 enzyme was added by Multidrop Combi (Thermo-Fisher). The compounds were allowed to incubate with PRMT1 for 30 min at room temperature, then a cocktail (10 ul) containing SAM and peptide was added to initiate the reaction (final volume=51 ul). […] The assays were stopped by the addition of non-radiolabeled SAM (10 ul) to a final concentration of 300 uM, which dilutes the ^3H-SAM to a level where its incorporation into the peptide substrate is no longer detectable. 50 ul of the reaction in the 384-well polypropylene plate was then transferred to a 384-well Flashplate and the biotinylated peptides were allowed to bind to the streptavidin surface for at least 1 hour before being washed once with 0.1% Tween20 in a Biotek ELx405 plate washer. The plates were then read in a PerkinElmer TopCount plate reader to measure the quantity of ^3H-labeled peptide bound to the Flashplate surface, measured as disintegrations per minute (dpm) or alternatively, referred to as counts per minute (cpm).
Where dpm=disintegrations per minute, cmpd=signal in assay well, and min and max are the respective minimum and maximum signal controls.
Where top and bottom are the normally allowed to float, but may be fixed at 100 or 0 respectively in a 3-parameter fit. The Hill Coefficient normally allowed to float but may also be fixed at 1 in a 3-parameter fit. Y is the % inhibition and X is the compound concentration.

[1] = single experiment or average of multiple experiments

Sequence of full-length human PRMT1 isoform 1 (GST-tagged) (Q99873 with tags, fused parts or gaps): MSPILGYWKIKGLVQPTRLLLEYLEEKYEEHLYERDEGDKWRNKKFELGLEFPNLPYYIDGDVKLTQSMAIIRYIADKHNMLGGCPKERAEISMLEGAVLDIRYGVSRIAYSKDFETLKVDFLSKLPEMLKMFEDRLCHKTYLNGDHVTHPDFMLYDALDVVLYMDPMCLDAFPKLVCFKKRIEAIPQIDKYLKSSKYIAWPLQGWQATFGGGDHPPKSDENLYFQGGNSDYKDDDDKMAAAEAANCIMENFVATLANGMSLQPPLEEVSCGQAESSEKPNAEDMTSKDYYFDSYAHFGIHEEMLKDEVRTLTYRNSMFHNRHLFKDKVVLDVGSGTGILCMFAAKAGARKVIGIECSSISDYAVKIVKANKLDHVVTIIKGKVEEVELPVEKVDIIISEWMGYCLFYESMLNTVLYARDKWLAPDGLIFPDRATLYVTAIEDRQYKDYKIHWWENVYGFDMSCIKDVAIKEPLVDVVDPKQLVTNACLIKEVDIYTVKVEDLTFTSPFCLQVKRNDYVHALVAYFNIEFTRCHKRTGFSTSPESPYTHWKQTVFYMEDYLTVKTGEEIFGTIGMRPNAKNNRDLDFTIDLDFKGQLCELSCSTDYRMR

| IC50 [nM] | IC50 [1] [nM] | SMILES |
| --- | --- | --- |
| < 100 | 14.2 | CNCCN(C)Cc1c[nH]nc1C1CCC2(CC1)CCN(C)C2=O (stereo not drawn) [Compound 152] |
| < 100 | 17.7 | CCN1CC2(CCC(c3n[nH]cc3CN(C)CCNC)CC2)N(C)C1=O (stereo not drawn) [Compound 154] |
| < 100 | 31.5 | CNCCN(C)Cc1c[nH]nc1[C@H]1CC[C@]2(CC1)CC(=O)N(CC(C)C)C2 [Compound 155] |
| < 100 | 18.5 | CNCCN(C)Cc1c[nH]nc1C1CCC2(CC1)CC(=O)N(C)C2 (stereo not drawn) [Compound 157] |
| < 100 | 19.7 | CCOC1CC(OCC)CC2(CCC(c3n[nH]cc3CN(C)CCNC)CC2)C1 (stereo not drawn) [Compound 159] |
| < 100 | 21.8 | CNCCN(C)Cc1c[nH]nc1C1CCC2(CC1)OCCCO2 [Compound 160] |
| < 100 | 23.2 | CNCCN(C)Cc1c[nH]nc1C1=CCC(CCOC)(CCOC)CC1 [Compound 173] |
| < 100 | 4.7 | CNCCN(C)Cc1c[nH]nc1[C@H]1CC[C@@H](C(C)C)CC1 [Compound 181] |

More lines, now with the values behind:

| SMILES | IC50 [nM] | IC50 [1] [nM] |
| --- | --- | --- |
| CNCCN(C)Cc1c[nH]nc1C1CCC2(CC1)CN(CC(C)C)C(=O)N2C (stereo not drawn) [Compound 145] | < 100 | 26.2 |
| CNCCN(C)Cc1c[nH]nc1C1CCC2(CC1)CC(=O)N(Cc1ccc(OC)cc1)C2 (stereo not drawn) [Compound 146] | < 100 | 14 |
| CNCCN(C)Cc1c[nH]nc1C1CCC2(CC1)CNC(=O)C2 (stereo not drawn) [Compound 147] | < 100 | 18.3 |
| CC[C@H]1CC[C@H](c2n[nH]cc2CN(C)CCNC)CC1 [Compound 148] | < 100 | 4.8 |
| CNCCN(C)Cc1c[nH]nc1C1CCC(C)CC1 (stereo not drawn) [Compound 149] | < 100 | 4.5 |
| CNCCN(C)Cc1c[nH]nc1C1CCC2(CC1)OCC(C(C)C)CO2 (stereo not drawn) [Compound 150] | < 100 | 44 |
| CNCCN(C)Cc1c[nH]nc1C1CCC2(CC1)CN(C)C(=O)N2CC(C)C (stereo not drawn) [Compound 151] | < 100 | 36.9 |
| CNCCN(C)Cc1c[nH]nc1C1CCC(OCC(C)C)CC1 (stereo not drawn) [Compound 153] | < 100 | 23.2 |
| CNCCN(C)Cc1c[nH]nc1[C@H]1CC[C@@]2(CC1)CC(=O)N(CC(C)C)C2 [Compound 156] | < 100 | 17.2 |
| CNCCN(C)Cc1c[nH]nc1C1CCC2(CC1)C(=O)N(C)C(=O)N2C (stereo not drawn) [Compound 171] | < 100 | 14.7 |
| CNCCN(C)Cc1c[nH]nc1C1CCC2(CC1)CN(C)C(=O)N2C (stereo not drawn) [Compound 172] | < 100 | 23 |
| CNCCN(C)Cc1c[nH]nc1C1CCC(CCOC)(CCOC)CC1 [Compound 174] | < 100 | 15.5 |
| CNCCN(C)Cc1c[nH]nc1[C@H]1CC[C@H](C(C)C)CC1 [Compound 180] | < 100 | 4.9 |

From US11512053B2, “Arginine methyltransferase inhibitors and uses thereof” (priority 2013, dated 2022)
